In patent US11517630B2, “Methods and compositions for regulating gene expression” (Children's Medical Center Corporation, priority 2005, dated 2022):

Experiments:
[1] = system: mutant (TGA-containing) Apo CII-luc fusion reporter in FG293 cells; test: In vitro luciferase assay: suppression of translational termination in FG293 cells transduced with mutant Apo CII-luc lentiviral vector; assay type: cell-based, human; details: for ability to induce luciferase expression (suppression of translation termination codons): 0 to 1000 μg/ml, mutant luc fusion; for % of wild-type luc activity: 200 μg/ml; for fold of induction: 5 μg/ml
Method: FG 293 cells were infected with viral supernatants at a multiplicity of infection (MOI) of 10. After 72 hours, cells were then split into six well plates, exposed to various concentrations of G1418 for 48 hours, and lysed. Protein extracts were then assayed for luciferase expression using the Promega Luciferase Assay System.
(§1) To facilitate quantitative measurement of both spontaneous read-through of specific termination codon configurations and the ability of specific antibiotics to suppress translational termination, a luciferase (luc) reporter gene was generated in which the first five codons of either WT mutant MIA-containing) Apo CII sequences were fused to luc coding sequences, and the resulting sequences were introduced into a standard lentiviral vector (FIG. 1B). High-titer virus generated from the vectors was used to infect human FG293 cells at a multiplicity of infection (MOI) of 10, so that virtually 100% of the cells would be stably transduced. Cells were then split into six well plates, exposed to varying concentrations of the aminoglycoside (G418) for 48 hours, and then lysed and assayed for luc expression. […] In contrast, cells transduced by vectors encoding the mutant Apo CII-luc expressed only low levels of luc in the absence of G418 (approximately 1.2% the activity of the wild type), but could be induced to strongly express luc by the addition of the antibiotic (FIG. 2B). […] The efficiency of suppression of translational termination was extremely high (over 70% of the level of wild-type reporter expression observed in the absence of the nonsense codon).
as §1, with “(TGA-containing)” for “MIA-containing)”
One of the expected characteristics of the gene regulation system described here is the ability to rapidly achieve induction of transgene expression, since (as indicated above) transcription is constitutive and therefore induction of gene expression should depend only upon the restoration of fall translation of the transgene coding sequences. To address this issue, we employed the transduced cells described above, and measured the level of reporter activity after G418 administration (200 μg/ml) as a function of time.
Compounds were tested in vitro using stable cell lines generated via the infection of FG293 cells with lentiviral vectors carrying either WT or mutant Apo CII luc sequences. The aminoglycosides were tested over a concentration range from 0 to 1000 μg/ml.

[2] = mice; cited from earlier work
[3] = system: mutant Apo CII-luc in murine lung tissue; test: In vivo luc induction in murine lung after intratracheal delivery of lentiviral vector, bioluminescent imaging; details: 1.5 mg daily, 4 days, average of five mice
Method: For intratracheal infections, nude mice were anaesthesized and then 100 μl of concentrated virus was delivered upon normal inhalation via a blunt-ended 16-gauge needle inserted in such a way to depress the tongue.
Prior to imaging, mice were anaesthesized and injected with 150 μl luciferin (30 mg/ml) (Xenagen, Alameda, Calif.). A series of bioluminescent images were then taken for up to 30 minutes using the Xenogen IVIS imager. Photon output was quantified at the plateau of the time-course using the Living Image software. Induction in fold was calculated based on the photon output in the animals before and after drug treatment.
To further establish the general applicability of the gene […] system, we next asked whether gene regulation at the level of translation could be readily accomplished in the in vivo setting. In a first animal model, intratracheal delivery (see Materials and Methods) of a lentiviral vector carrying WT or mutant Apo CII-luc sequences was utilized in order to assess the ability to regulate luc expression in murine lung tissue via aminoglycoside administration. Five days post transduction, prior to administration of aminoglycoside, mice were imaged for luc expression using the Xenogen IVIS non-invasive bioluminescent imager (29). […]

[4] = system: mutant Apo CII-luc in hematopoietic cells; test: In vivo luc induction in murine bone marrow transplantation model (transduced hematopoietic stem cells); design: species or system mice; details: 1.5 mg/day for 3.5 days, four mutant luc animals
Method: Purified HSC were obtained by isolating bone marrow SP cells using fluorescence activated cell sorting after Hoechst staining as previously described (10), with some modifications. Briefly, femurs and tibias from mice were homogenized, and the bone marrow cells were filtered through 70 μm nylon mesh and washed in PBS containing 2% FCS and 0.5% Sodium Azide. Cells were then resuspended in HBSS containing 2% FCS, 10 mM Hepes buffer and antibiotics (all from Gibco, Grand Island, N.Y.) and 8.8 μg/ml Hoechst 33342 (Molecular Probes, Eugene, Oreg.) at a cell concentration of 5×10^6/ml. Following incubation for 90 min at 37° C., cells were washed once and further purified by using a gradient of Ficoll-Paque™ Plus (Amersham Biosciences AB, Uppsala) to remove red blood cells. Purified marrow cells were then sorted using a MoFlo high speed cell sorter (DakoCytomation, Fort Collins, Col.). Except when specified, cells were kept on ice during the entire procedure. […]
Prior to imaging, mice were anaesthesized and injected with 150 μl luciferin (30 mg/ml) (Xenagen, Alameda, Calif.). […] Photon output was quantified at the plateau of the time-course using the Living Image software. Induction in fold was calculated based on the photon output in the animals before and after drug treatment. […]

[5] = Acute toxicity at concentrations used to regulate gene expression in cell lines and animals
Text: Overall, the system described here represents a remarkably simple means of controlling the expression of genes in mammalian cells that should have immediate experimental applications. While the range of inducibility obtainable with the system (in some cases over 60 fold) is considerably more limited than that of gone regulation systems based on the control of transcription or RNA self-cleavage, the ability to fine-tune the basal and induced levels of gene expression via use of specific termination codons and adjacent sequences may mitigate this limitation in many experimental situations. […] Similarly, others have shown that G418 can be used at relatively non-toxic doses to suppress nonsense mutations in cell lines and in animal models of inherited disease (25, 35). […] The availability of such molecules for experimental studies in the future should further expand the utility of translation-based gene regulation strategies.

NC[C@@H]1O[C@H](O[C@H]2[C@@H](O)[C@H](O[C@@H]3[C@@H](O)[C@H](N)C[C@H](N)[C@H]3O[C@H]3O[C@H](CO)[C@@H](O)[C@H](O)[C@H]3N)O[C@@H]2CO)[C@H](N)[C@@H](O)[C@@H]1O [paromomycin]
ability to induce luciferase expression (suppression of translation termination codons) ([1]; 48 hours, FG293 cells): only weak induction

NCC[C@H](O)C(=O)N[C@@H]1C[C@H](N)[C@@H](O[C@H]2O[C@H](CN)[C@@H](O)[C@H](O)[C@H]2O)[C@H](O)[C@H]1O[C@H]1O[C@H](CO)[C@@H](O)[C@H](N)[C@H]1O [amakacin]
ability to induce luciferase expression (suppression of translation termination codons) ([1]; 48 hours, FG293 cells): only weak induction

gentamycin sulfate
effective dosage [2]: 17 mg/kg

CN[C@@H]1[C@@H](O)[C@@H](O[C@@H]2[C@@H](O)[C@H](O[C@H]3O[C@H]([C@@H](C)O)[C@@H](O)[C@H](O)[C@H]3N)[C@@H](N)C[C@H]2N)OC[C@]1(C)O [G418]
% of wild-type luc activity ([1]; 1 hour post induction): 1.4%
% of wild-type luc activity ([1]; 6 hours post induction): 6.1%
% of wild-type luc activity ([1]; 12 hours post induction): 25.3%
% of wild-type luc activity ([1]; 24 hours post induction): 38.1%
% of wild-type luc activity ([1]; 48 hours post exposure): 51.3%
efficiency of suppression of translational termination, % of wild-type reporter expression ([1]; 300 μg/ml, 48 hours, FG293 cells): over 70%
increase in reporter (luc) expression relative to the uninduced state, maximum induction ([1]; 300 μg/ml, 48 hours, FG293 cells, mutant Apo CII-luc): approximately 60 fold
fold induction at 200 µg/mL ([1]; Homo sapiens, 48 h, read-out: fold induction of luc (maximal induction)): 60
luciferase expression, % of level in WT luc mice [3]: 27%
induced level, % of expression in WT luc mice [4]: ~51%
fold induction at 1.5 mg ([4]; Mus musculus, Hematopoietic stem cell, 84 h, read-out: average fold induction of luc expression): 65
acute toxicity at concentrations used [5]: not acutely toxic

CC(C)(C)c1ccc(OCC(=O)Nc2cccc(C(=O)O)c2)cc1 [3-[2-(4-tert-butyl-phenoxyl)-acetylamino]-benzoic acid]
fold of induction ([1]; FG293 cells): about 14%

NC[C@H]1O[C@H](O[C@H]2[C@H](O)[C@@H](O[C@H]3O[C@H](CO)[C@@H](O)[C@H](N)[C@H]3O)[C@H](N)C[C@@H]2N)[C@H](N)C[C@@H]1O [tobramycin]
ability to induce luciferase expression (suppression of translation termination codons) ([1]; 48 hours, FG293 cells): only weak induction

gentamicin
ability to induce luciferase expression (suppression of translation termination codons) ([1]; 48 hours, FG293 cells): only weak induction

CCC(C)(C)c1ccc(OCC(=O)Nc2cccc(C(=O)O)c2)cc1 [3-{2-[4-(1,1-dimethyl-propyl)-phenoxyl]acetylamino}-benzoic acid]
fold of induction ([1]; FG293 cells): about 24%
